Laboratory results as given in ChEMBL document CHEMBL3885861, “Open TG-GATES”.

Species: Rattus norvegicus
Assay: Open TG-GATES - Regimen: Single
Type: toxicity, organism-based, Sprague-Dawley
Parameters: regimen Single, gender Male, age 6 weeks
Conditions: in vivo, iv, 300 mg/kg, route intravenous injection, dose level Low; for APTT / Bas / Eos / Fbg / Hb / Ht / Lym / MCH / MCHC / MCV / Mono / PT / Plat / RBC / Ret / WBC: tissue Blood; for KIDNEY_L / KIDNEY_R / KIDNEY_TOTAL: tissue Kidney; for LIVER: tissue Liver; for ALP / ALT / AST / BUN / CRE / Ca / Cl / DBIL / GLC / IP / K / LDH / Na / PL / RALB / TBIL / TC / TG / TP / gamma-GTP: tissue Plasma

**Q.** Which results are given for `CC(=O)OCC1=C(C(=O)O)N2C(=O)[C@@H](NC(=O)Cc3cccs3)[C@H]2SC1` [CEPHALOTHIN]?
**A.** TERMINAL_BW (3 h): 215.7 g; APTT (3 h): 21.9 s; Bas (3 h): 0%; Eos (3 h): 0.6%; Fbg (3 h): 294.6 mg/dL; Hb (3 h): 13 g/dL; Ht (3 h): 38.4%; Lym (3 h): 75.4%; MCH (3 h): 21.3 pg; MCHC (3 h): 33.8%; MCV (3 h): 62.9 fL; Mono (3 h): 2.6%; PT (3 h): 16.4 s; Plat (3 h): 128.8 x10_4/uL; RBC (3 h): 611.6 x10_4/ul; Ret (3 h): 6.6%; WBC (3 h): 98.3 x10_2/uL; KIDNEY_L (3 h): 0.9 g; KIDNEY_R (3 h): 1 g; KIDNEY_TOTAL (3 h): 1.9 g; LIVER (3 h): 9.8 g; ALP (3 h): 1407.8 IU/L; ALT (3 h): 49.8 IU/L; AST (3 h): 87.8 IU/L; BUN (3 h): 12.4 mg/dL; CRE (3 h): 0.2 mg/dL; Ca (3 h): 10.5 mg/dL; Cl (3 h): 105.8 meq/L; DBIL (3 h): 0 mg/dL; GLC (3 h): 179 mg/dL; IP (3 h): 7.8 mg/dL; K (3 h): 4.1 meq/L; LDH (3 h): 204.4 IU/L; Na (3 h): 142.4 meq/L; PL (3 h): 135.2 mg/dL; RALB (3 h): 2.8 g/dL; TBIL (3 h): 0.016 mg/dL; TC (3 h): 69.2 mg/dL; TG (3 h): 92 mg/dL; TP (3 h): 5.2 g/dL; gamma-GTP (3 h): 1.4 IU/L; TERMINAL_BW (6 h): 208.2 g; APTT (6 h): 22.7 s; Bas (6 h): 0%; Eos (6 h): 0.8%; Fbg (6 h): 278.6 mg/dL; Hb (6 h): 13.4 g/dL; Ht (6 h): 38.9%; Lym (6 h): 78%; MCH (6 h): 21.3 pg; MCHC (6 h): 34.4%; MCV (6 h): 62 fL; Mono (6 h): 2.6%; PT (6 h): 16 s; Plat (6 h): 118.3 x10_4/uL; RBC (6 h): 627.2 x10_4/ul; Ret (6 h): 5.9%; WBC (6 h): 75.8 x10_2/uL; KIDNEY_L (6 h): 0.9 g; KIDNEY_R (6 h): 0.9 g; KIDNEY_TOTAL (6 h): 1.9 g; LIVER (6 h): 8.9 g; ALP (6 h): 1320.4 IU/L; ALT (6 h): 36.8 IU/L; AST (6 h): 78.4 IU/L; BUN (6 h): 9.6 mg/dL; CRE (6 h): 0.2 mg/dL; Ca (6 h): 10.3 mg/dL; Cl (6 h): 105.6 meq/L; DBIL (6 h): 0 mg/dL; GLC (6 h): 171.6 mg/dL; IP (6 h): 9 mg/dL; K (6 h): 4.1 meq/L; LDH (6 h): 162.4 IU/L; Na (6 h): 141.6 meq/L; PL (6 h): 125.4 mg/dL; RALB (6 h): 2.9 g/dL; TBIL (6 h): 0.022 mg/dL; TC (6 h): 66.4 mg/dL; TG (6 h): 75.2 mg/dL; TP (6 h): 5.3 g/dL; gamma-GTP (6 h): 1 IU/L; TERMINAL_BW (9 h): 211.4 g; APTT (9 h): 24.2 s; Bas (9 h): 0%; Eos (9 h): 1%; Fbg (9 h): 284 mg/dL; Hb (9 h): 13.2 g/dL; Ht (9 h): 38.6%; Lym (9 h): 81.2%; MCH (9 h): 21.3 pg; MCHC (9 h): 34.1%; MCV (9 h): 62.3 fL; Mono (9 h): 2%; PT (9 h): 16.1 s; Plat (9 h): 135 x10_4/uL; RBC (9 h): 619.6 x10_4/ul; Ret (9 h): 6.4%; WBC (9 h): 77.3 x10_2/uL; KIDNEY_L (9 h): 1 g; KIDNEY_R (9 h): 1 g; KIDNEY_TOTAL (9 h): 1.9 g; LIVER (9 h): 8.6 g; ALP (9 h): 1157.8 IU/L; ALT (9 h): 34.2 IU/L; AST (9 h): 69 IU/L; BUN (9 h): 10 mg/dL; CRE (9 h): 0.1 mg/dL; Ca (9 h): 10.4 mg/dL; Cl (9 h): 106.2 meq/L; DBIL (9 h): 0 mg/dL; GLC (9 h): 180.8 mg/dL; IP (9 h): 9.6 mg/dL; K (9 h): 4.5 meq/L; LDH (9 h): 128.6 IU/L; Na (9 h): 141 meq/L; PL (9 h): 115.8 mg/dL; RALB (9 h): 2.8 g/dL; TBIL (9 h): 0.02 mg/dL; TC (9 h): 60.6 mg/dL; TG (9 h): 71.2 mg/dL; TP (9 h): 5.1 g/dL; gamma-GTP (9 h): 1.4 IU/L; TERMINAL_BW (24 h): 226.1 g; APTT (24 h): 22 s; Bas (24 h): 0%; Eos (24 h): 0.8%; Fbg (24 h): 303.8 mg/dL; Hb (24 h): 13.2 g/dL; Ht (24 h): 38.9%; Lym (24 h): 81%; MCH (24 h): 20.6 pg; MCHC (24 h): 34%; MCV (24 h): 60.4 fL; Mono (24 h): 2.2%; PT (24 h): 16.7 s; Plat (24 h): 120 x10_4/uL; RBC (24 h): 645.2 x10_4/ul; Ret (24 h): 6%; WBC (24 h): 89.2 x10_2/uL; KIDNEY_L (24 h): 1 g; KIDNEY_R (24 h): 1 g; KIDNEY_TOTAL (24 h): 2 g; LIVER (24 h): 10.2 g; ALP (24 h): 1605.2 IU/L; ALT (24 h): 53 IU/L; AST (24 h): 77.6 IU/L; BUN (24 h): 17 mg/dL; CRE (24 h): 0.2 mg/dL; Ca (24 h): 10.6 mg/dL; Cl (24 h): 105.8 meq/L; DBIL (24 h): 0 mg/dL; GLC (24 h): 184.4 mg/dL; IP (24 h): 7.2 mg/dL; K (24 h): 4.3 meq/L; LDH (24 h): 171.6 IU/L; Na (24 h): 142.4 meq/L; PL (24 h): 135.6 mg/dL; RALB (24 h): 2.9 g/dL; TBIL (24 h): 0.016 mg/dL; TC (24 h): 70.6 mg/dL; TG (24 h): 90 mg/dL; TP (24 h): 5.4 g/dL; gamma-GTP (24 h): 2 IU/L
